Reference: US20220339596A1, “METHOD FOR PRODUCING RADICALS, METHOD FOR STERILIZING SPORES, AND CANCER TREATMENT DRUG” (priority 2019, published 2022)
Where two headings read alike, the source gives them in different places.

How the values were obtained:
Candida albicans = format: cell-based
[1] = ClO2 radical concentration over time (absorption spectrum); format: physicochemical; details: photoirradiation not performed
Experimental: 1 mL of each of the reagents was placed in a disposable cell UV (product name: Two-face transparent semimicro #1941,Nikko Hansen & CO., LTD.), and was irradiated with light via a side surface of the cell using an LED in the same manner as in Example 1 (1) described above. The photoirradiation was performed similarly to Example 1 described above, unless otherwise specified. […] Then, an absorption spectrum was measured over time from the start of irradiation using the double optical path spectrophotometer (product name: UV-2400PC, SHIMADZU CORPORATION), and the molar concentration of chlorite ions (ClO2^−) was calculated from an absorbance at the minimum absorption of the wavelength of 260 nm, and the molar concentration of chlorine dioxide radicals (ClO2^⋅) was calculated from an absorbance at the maximum absorption of the wavelength of 359 nm.

Yeast cells = format: cell-based
Experimental: Yeast was inoculated into a modified YPE liquid medium (2% of polypeptone, 1% of yeast extract, 2% of ethanol, and 0.2% of glucose) and was incubated at 30° C. for 1 day. A bacterial liquid was collected from the liquid medium and washed by being suspended in purified water, and yeast cells collected through centrifugal separation were taken as a specimen. The cells were suspended in a 100 mmol/L potassium phosphate buffer solution (pH: 7.0) at a concentration of about 5×10^8 cells/mL. Also, the suspension of cells was diluted with a 100 mmol/L potassium phosphate buffer solution as appropriate so as to have a target concentration of cells.
The reagent containing chlorine dioxide radicals prepared as described above in (3) was diluted with a 10 mmol/L potassium phosphate buffer solution (pH: 7.0) to prepare a sample containing chlorine dioxide radicals at a concentration of 20 μmol/L. On the other hand, the suspension of cells prepared in (1) was diluted with a 10 mmol/L potassium phosphate buffer solution (pH: 7.0) such that the concentration of cells was about 5×10^8 cells/mL. Next, 0.5 mL of the sample containing chlorine dioxide radicals was mixed with 0.5 mL of the suspension of cell spores, and the liquid mixture was left to stand at room temperature for 30 minutes. Thereafter, the liquid mixture was scattered over brain heart agar and incubated at 30° C. for 1 day, and then the number of colonies was counted.
Then, similarly to Experiment 1 described above, 0.5 mL of a yeast solution having a yeast cell concentration of about 5×10^8 cells/mL was added to 0.5 mL of the reagent, and 1 mL of the resultant solution was placed in a disposable cell UV (product name: Two-face transparent semimicro #1941, Nikko Hansen & CO., LTD.), and was irradiated with light using an LED via a side surface of the cell. […] The radiant energy under the above condition was calculated as 37.8 J/cm^2. The solution after the treatment was scattered over brain heart agar after being diluted as appropriate, and incubated at 30° C. for 1 day, and then the number of colonies was counted.

respiratory chain [2] = experiment: Electron transfer activity of the respiratory chain in Candida cells; format: cell-based, Candida albicans; details: in proportion to the reduction in survival rate
Excerpt: (§1) Accordingly, it is supposed that the respiratory chain in mitochondria was one target portion of the yeast cells and the Candida cells treated with chlorine dioxide radicals. It is thought that when the respiratory chain is damaged, ROS (Reactive Oxygen Species) are generated, which leads to apoptosis and the death of cells.

[3] = tested on: Spores of Bacillus subtilis; format: cell-based
Experimental: Bacillus subtilis was scattered over a nutrient agar medium and incubated at 37° C. for 1 week. Colonies were scraped off from the agar medium and washed by being suspended in a physiological saline solution, and Bacillus subtilis collected through centrifugal separation was taken to be cell spores. The cell spores were suspended in a physiological saline solution at a concentration of about 6×10^6 spores/mL. The suspension of cell spores was prepared so as to have the target concentration of cell spores by being diluted with purified water as appropriate.
On the other hand, a reagent having a pH of 7.0 was prepared and irradiated with light using the LED in the same manner as that described above in (1) to generate radicals. The reagent (chlorine dioxide radical concentration: 600 μmol/L) in which radicals were generated was diluted with a 10 mmol/L potassium phosphate buffer solution (pH: 7.0) as appropriate to prepare samples containing radicals at predetermined concentrations. […] Thereafter, the liquid mixture was scattered over brain heart agar, incubation was performed at 37° C. for 12 hours, and then the number of colonies was counted.
As control 1, a reagent having a pH of 7.0 that was not irradiated with light was added to the suspension of cell spores and was left to stand, and incubation was performed as described above, and then the number of colonies was counted. […]

respiratory chain [4] = experiment: Electron transfer activity of the respiratory chain in yeast cells; format: cell-based; details: in proportion to the reduction in survival rate
Excerpt: as §1

[5] = tested on: HT-29 cells (human colon adenocarcinoma cells); details: for cancer cells killed: 455 nm light 72 J/cm^2
Experimental: HT-29 cells (human colon adenocarcinoma cells) were inoculated into each well of a cell incubation microplate (subjected to surface treatment) having 96 wells and grown in a CO2 incubator at 37° C. in the presence of 5% of CO2 until the number of cells reached about 2000 cells/well. 90 μL of McCoy's 5a Medium (the name of a product manufactured by FUJIFILM Wako Pure Chemical Corporation) was used as the cell culture medium. Next, after each treatment described below in (1) to (6) was performed, the medium was replaced with 90 μL of McCoy's 5a Medium and the cells were incubated in the CO2 incubator for 2 days under the above conditions. 10 μL of a WST-8 solution (solution in a product “WST-8 Cell Proliferation Kit”, Funakoshi Co., Ltd.) was added to measure the number of living cells, then incubation was performed in the CO2 incubator (37° C.) for 5 hours, and thereafter an absorbance of 450 nm was measured using a microplate reader. The percentage of the absorbance of each sample relative to an absorbance when treatment (1), which was a control experiment, was performed was calculated. The absorbance when treatment (1) was performed was almost the same as the absorbance of untreated cells.
Conditions of treatments (1) to (6) and percentages of absorbances of samples obtained through the treatments were as follows. The amount by which the percentage of an absorbance decreased from 100% is presumed to be substantially equal to a death rate (%) of cancer cells.
(1) The medium was replaced with 100 μL of PBS (pH: 7.0)** and left to stand at room temperature for 30 minutes. ------ Absorbance percentage: 100% (2) The medium was replaced with 100 μL of PBS (pH: 7.0) and irradiated with light (radiant energy: 72 J/cm^2) at room temperature for 30 minutes using an LED (product name: M455L3, Thorlabs Japan Inc., wavelength: 455 nm, irradiance: 40 mW/cm^2). ------ Absorbance percentage: 96% (3) The medium was replaced with 100 μL of PBS (pH: 7.0) containing 1.4 mM of NaClO2 and left to stand at room temperature for 30 minutes. ------ Absorbance percentage: 97% (4) The medium was replaced with 100 μL of PBS (pH: 7.0) containing 1.4 mM of NaClO2 and irradiated with light (radiant energy: 72 J/cm^2) at room temperature for 30 minutes using an LED (product name: M455L3, Thorlabs Japan Inc., wavelength: 455 nm, irradiance: 40 mW/cm^2). ------ Absorbance percentage: 11% (5) The medium was replaced with 100 μL of PBS (pH: 7.0) containing 2.8 mM of NaClO2 and left to stand at room temperature for 30 minutes. ------ Absorbance percentage: 97% (6) The medium was replaced with 100 μL of PBS (pH: 7.0) containing 2.8 mM of NaClO2 and irradiated with light (radiant energy: 72 J/cm^2) at room temperature for 30 minutes using an LED (product name: M455L3, Thorlabs Japan Inc., wavelength: 455 nm, irradiance: 40 mW/cm^2). ------ Absorbance percentage: 6% **: A phosphate-buffered saline whose pH was adjusted to 7.0 and osmotic pressure was adjusted to be the same as that of a standard phosphate-buffered saline having a pH of 7.5 was used. Specifically, PBS (pH: 7.0) had the following composition: NaCl: 140 mM, KCl: 0.43 mM, KH2PO4: 3.72 mM, Na2HPO4: 5.81 mM.

[6] = Experiment 1: 20 μmol/L chlorine dioxide radical sample mixed 1:1 with cell suspension, room temperature 30 minutes
[7] = control: sodium chlorite aqueous solution not irradiated with light, 25° C. 1 hour

Compound	survival rate relative to untreated (Candida albicans; as Experiment 1 (pre-generated chlorine dioxide radicals))	time in which ClO2 radical concentration decreased by about half [1]	concentration of cells after treatment (Yeast cells; [6])	survival rate relative to untreated (Yeast cells; [6])	electron transfer activity of the respiratory chain (respiratory chain [2])	number of spores decreased to ([3]; chlorine dioxide radical concentration 300 μmol/L, room temperature 30 minutes)	electron transfer activity of the respiratory chain (respiratory chain [4])	survival rate relative to untreated (Candida albicans; as Experiment 2 (sodium chlorite with LED irradiation))	survival rate (Candida albicans; [7])	survival rate (Yeast cells; [7])	reduction in the number of spores ([3]; control 1: reagent pH 7.0 not irradiated with light)	cancer cells killed ([5]; 1.4 mM)	cancer cells killed ([5]; 2.8 mM)	Absorbance percentage (450 nm, relative to treatment (1)) ([5]; treatment (3): 1.4 mM, PBS pH 7.0, room temperature 30 minutes, no light)	Absorbance percentage (450 nm, relative to treatment (1)) ([5]; treatment (4): 1.4 mM, PBS pH 7.0, 455 nm LED 40 mW/cm^2 30 minutes (72 J/cm^2))	Absorbance percentage (450 nm, relative to treatment (1)) ([5]; treatment (5): 2.8 mM, PBS pH 7.0, room temperature 30 minutes, no light)	Absorbance percentage (450 nm, relative to treatment (1)) ([5]; treatment (6): 2.8 mM, PBS pH 7.0, 455 nm LED 40 mW/cm^2 30 minutes (72 J/cm^2))
[O][Cl+][O-] [chlorine dioxide radicals]	about one tenth	~2 h	about 2.5×10^7 cells/mL	about one tenth	reduction	≤ 10^−6	reduction	–	–	–	–	–	–	–	–	–	–
sodium chlorite	–	–	–	–	–	–	–	about one tenth	did not decrease	did not decrease	not confirmed	about 89%	~94%	97%	11%	97%	6%
